Assay results taken from paper PMC7723077, “Spatial Profiles of Phosphate in Roots Indicate Developmental Control of Uptake, Recycling, and Sequestration” (Plant Physiology, 2020).

Target: T1, cpFLIPPi-5.3m
T1 construct: gene PiBP
Conditions: in vivo, root epidermal cells of transition zone; injection buffer 50 mM MOPS-KOH pH 7.3, 0.5 mM MgCl2, total K+ 75 mM

Kd: 7.4 ± 1.7 mM
SMILES: O=P(O)(O)O [Pi, inorganic phosphate]
